# Experimental data published in patent US11014908B2, “Chemical compounds” (Pfizer Inc., priority 2018, dated 2021).
# How the values were obtained:
# [1] = target: T1, purified sickle cell hemoglobin (HbS) (Homo sapiens, UniProt P68871+P69905, E7V); assay: Binding affinity to purified HbS by Surface Plasmon Resonance (SPR); conditions: crosslinked biotinylated HbS, 1:1 binding model
# T1 construct: HbS was obtained from the blood of homozygous S/S patients; from tissue; host or cells: red blood cells of homozygous S/S patients
# Description: Binding Affinity, Kd (uM)
# The binding affinity for compounds to purified sickle cell hemoglobin (HbS) was determined using Surface Plasmon Resonance (SPR). Patient Sickle Cell blood was obtained from Boston Children's Hospital in accordance with Institutional Review Board protocols. HbS was obtained from the blood of homozygous S/S patients, and purified using the method described in: Antonini and Brunori, Hemoglobin and Myoglobin in their Reactions with Ligands. Amsterdam, London, North-Holland Publishing Company, 1971. Whole blood was separated into red blood cell and plasma components by centrifugation, after which the plasma was decanted and discarded. Packed red blood cells were washed with normal saline (0.9% NaCl) and then lysed by 2:1 dilution with cold deionized water. The hemolysate was centrifuged to remove cellular debris, and further purified with the addition of Drabkin's Buffer (2.8 M potassium phosphate), and centrifugation with Celite®. Organic phosphates (2,3-BPG) were removed via gel filtration with Sephadex® G-25. HbS and wild-type hemoglobin, hemoglobin A (HbA), were separated by […], using diethylaminoethyl (DEAE)-Sepharose® fast flow, and eluted using a pH gradient from pH 8.5-pH 7.5. Purity of the resulting HbS and HbA was determined by native gel electrophoresis and HbS fractions used further.
# To stabilize the tetrameric structure of hemoglobin, HbS was crosslinked between the beta subunits (Lys82-Lys82) using bis(3,5-dibromosalicyl) fumarate, as described in: Shibayama N. et al, J Am Chem Soc 2014, 136, 13, 5097-5105 and Shibayama N. et al, Biochemistry 1991, 39, 33, 8158-8165). Crosslinked HbS was subsequently biotynylated and captured on a custom made Streptavidin sensor to achieve protein density of 4000 to 5000 resonance units (RUs) on the surface. Compound binding to HbS using SPR was tested on Sierra Sensors MASS-1 instrument. The running buffer contained 100 mM Potassium Phosphate, pH 7.5, 0.005% Tween-20, 1 mM ethylenediaminetetraacetic acid (EDTA), 0.1 mg/mL bovine serum albumin with 1% DMSO. Compound samples were injected at a flow rate of 30 μL/min for 2 minutes association and at least 5 minutes of dissociation time. A 2- or 3-fold dilution series containing at least 4 concentrations were tested for each compound. The dose range was selected based on the activity of the compounds in biochemical assays, when available. Multiple blank injections of running buffer were run before and after each compound series to allow blank subtraction for compound data in the analysis software. Positive controls were run in each experiment to monitor and maintain the activity of HbS on the surface. A DMSO curve was run at the beginning of each data set to apply an excluded volume correction to the data during analysis. The data were processed and analyzed using Sierra Sensors and Scrubber 2.0 software. The binding affinities (dissociation constant Kd) were calculated by fitting the sensorgrams to a 1:1 binding model.
# HbS = target: T2, HbS (Homo sapiens, UniProt P68871+P69905, E7V); assay: 'R'-'T' assay (conversion of oxy HbS to deoxy HbS under deoxygenating conditions); format: biochemical; conditions: 50% inhibition of HbS 'R'-'T' conversion; 3 uM HbS, <1% O2
# T2 construct: HbS was obtained from the blood of homozygous S/S patients; from tissue; host or cells: red blood cells of homozygous S/S patients
# Description: Conversion from oxy (R, relaxed state) to deoxy (T, tense state) HbS in the presence of compound was performed to determine the ability of compounds to stabilize the oxy (R) state under deoxygenating conditions. The assay run was similar to the ‘Oxygen dissociation assay’ described in Oksenberg et al, Br J Haematology, 2016, 175, 141-153.
# Assay ready compound plates were prepared by first preparing a master serial dilution plate from a 30 mM initial compound stock in 100% DMSO. From this master serial dilution plate, 167 nL of the desired compound concentration was delivered to the assay ready plates using acoustical dispensing. Plates were frozen at −20° C. until needed. Purified HbS-O2 (i.e. oxy HbS) was diluted to 3 uM in 100 mM potassium phosphate buffer, pH=7.4. 50 uL of 3 uM stock solution was added to each well of the assay ready plate and mechanically mixed eight times. Following mixing the plates were covered and incubated at room temperature for one hour with moderate shaking. Following incubation, the plates were placed in a deoxygenated environment (<1% O2) for two hours, and the conversion to deoxy HbS monitored as a function of time. Oxygenated and deoxygenated forms of hemoglobin were detected using the absorbance of the Soret peaks at 415 and 430 nm respectively, and absorbance measurements (optical density, OD) were taken at 0, 90 and 120 minutes. Background absorbance for correction was collected at 700 nm.
# Data were analyzed by first subtracting baseline absorbance at 700 nm from 415 nm and 430 nm data at each timepoint, and then taking the ratio of 415/430 nm data (Ratio=[(OD415−OD700)/(OD430−OD700)]. The effect at each timepoint was calculated using the ratios from the previous calculation at time 0 and each time point of interest (Effect^time x=Ratio^time x/Ratio^time 0). Percent effect was calculated by comparing the effects of compound versus HbS only with the effects observed by the positive control compound tucaresol (percent effect=[(effect^time x compound−effect^time x HbS)/(effect^time x tucaresol−effect^time x HbS)]×100). Data were reported as the percent effect for a single point. Calculations to determine the concentration of compound for 50% inhibition (IC50 (uM)) of the HbS ‘R’-‘T’ conversion were based on the percent effect at varying compound concentration.
SMILES,Kd [1],IC50 (HbS)
"C[C@H](Oc1cc2cc(F)ccc2nc1N)c1cc(C(=O)NCCO)ccc1-n1cccn1 [Example 12, 3-{(1S)-1-[(2-amino-6-fluoroquinolin-3-yl)oxy]ethyl}-N-(2-hydroxyethyl)-4-(1H-pyrazol-1-yl)benzamide]",0.038 µM,4.48 µM
"C[C@H](Oc1cc2cc(F)cc(F)c2nc1N)c1ncc(F)cc1-n1cccn1 [Example 38, 6,8-difluoro-3-{(1S)-1-[5-fluoro-3-(1H-pyrazol-1-yl)pyridin-2-yl]ethoxy}quinolin-2-amine]",0.045 µM,3.62 µM
"C[C@H](Oc1cc2cc(F)c(Cl)cc2nc1N)c1cc2[nH]ncc2cc1-n1cccn1 [Example 60, 7-chloro-6-fluoro-3-{(1S)-1-[5-(1H-pyrazol-1-yl)-1H-indazol-6-yl]ethoxy}quinolin-2-amine]",0.055 µM,4.11 µM
"C[C@H](Oc1cc2cc(F)ccc2nc1N)c1cc2c(cnn2CCO)cc1-n1cccn1 [Example 73, 2-[6-{(1S)-1-[(2-amino-6-fluoroquinolin-3-yl)oxy]ethyl}-5-(1H-pyrazol-1-yl)-1H-indazol-1-yl]ethanol]",0.02 µM,4.51 µM
"C[C@H](Oc1cc2cc(F)ccc2nc1N)c1cc(C(=O)NCC(=O)O)ccc1-n1cccn1 [Example 10, N-[3-{(1S)-1-[(2-amino-6-fluoroquinolin-3-yl)oxy]ethyl}-4-(1H-pyrazol-1-yl)benzoyl]glycine]",0.211 µM,5.86 µM
"C[C@H](Oc1cc2cc(F)ccc2nc1N)c1ncc(F)cc1-n1cccn1 [Example 33, 6-fluoro-3-{(1S)-1-[5-fluoro-3-(1H-pyrazol-1-yl)pyridin-2-yl]ethoxy}quinolin-2-amine]",0.034 µM,4.3 µM
"CC(Oc1cc2cc(C(N)=O)c(F)cc2nc1N)c1cc2[nH]ncc2cc1-n1cccn1 (stereo in doubt) [Example 65, 2-amino-7-fluoro-3-{(1R)-1-[5-(1H-pyrazol-1-yl)-1H-indazol-6-yl]ethoxy}quinoline-6-carboxamide]",0.015 µM,6.17 µM
"C[C@H](Oc1cc2c(F)ccc(F)c2nc1N)c1ncc(F)cc1-n1cccn1 [Example 43, 5,8-difluoro-3-{(1S)-1-[5-fluoro-3-(1H-pyrazol-1-yl)pyridin-2-yl]ethoxy}quinolin-2-amine]",0.02 µM,4.63 µM
"C[C@H](Oc1cc2cc(C(N)=O)ccc2nc1N)c1nc(O)ccc1-n1cccn1 [Example 44, 2-amino-3-{(1S)-1-[6-hydroxy-3-(1H-pyrazol-1-yl)pyridin-2-yl]ethoxy}quinoline-6-carboxamide]",0.063 µM,4.4 µM
"COC(=O)c1ccc(-n2cccn2)c([C@H](C)Oc2cc3cc(F)ccc3nc2N)c1 [Example 6, methyl 3-{(1S)-1-[(2-amino-6-fluoroquinolin-3-yl)oxy]ethyl}-4-(1H-pyrazol-1-yl)benzoate]",0.035 µM,4.48 µM
"C[C@H](Oc1cc2cc(C(N)=O)ccc2nc1N)c1nc(OCCO)ccc1-n1cccn1 [Example 42, 2-amino-3-{(1S)-1-[6-(2-hydroxyethoxy)-3-(1H-pyrazol-1-yl)pyridin-2-yl]ethoxy}quinoline-6-carboxamide]",0.142 µM,5.26 µM
"C[C@H](Oc1cc2ccccc2nc1N)c1ncc(F)cc1-n1cccn1 [Example 45, 3-{(1S)-1-[5-fluoro-3-(1H-pyrazol-1-yl)pyridin-2-yl]ethoxy}quinolin-2-amine]",0.185 µM,5.58 µM
"C[C@H](Oc1cc2cc(F)c(Cl)cc2nc1N)c1nc(C(N)=O)ccc1-n1cccn1 [Example 32, 6-{(1S)-1-[(2-amino-7-chloro-6-fluoroquinolin-3-yl)oxy]ethyl}-5-(1H-pyrazol-1-yl)pyridine-2-carboxamide]",0.057 µM,4.75 µM
"Cc1cc2nc(N)c(O[C@@H](C)c3nc(O)ccc3-n3cccn3)cc2cn1 [Example 46, 6-{(1S)-1-[(2-amino-7-methyl-1,6-naphthyridin-3-yl)oxy]ethyl}-5-(1H-pyrazol-1-yl)pyridin-2-ol]",0.102 µM,5.22 µM
"C[C@H](Oc1cc2cc(C(N)=O)ccc2nc1N)c1nc(CO)ccc1-n1cccn1 [Example 55, 2-amino-3-{(1S)-1-[6-(hydroxymethyl)-3-(1H-pyrazol-1-yl)pyridin-2-yl]ethoxy}quinoline-6-carboxamide]",0.406 µM,5.71 µM
"C[C@H](Oc1cc2cc(F)ccc2nc1N)c1cc(C(=O)NCCCO)ccc1-n1cccn1 [Example 13, 3-{(1S)-1-[(2-amino-6-fluoroquinolin-3-yl)oxy]ethyl}-N-(3-hydroxypropyl)-4-(1H-pyrazol-1-yl)benzamide]",0.065 µM,4.33 µM
"C[C@H](Oc1cc2cc(CO)ccc2nc1N)c1nc(O)ccc1-n1cccn1 [Example 49, 6-[(1S)-1-{[2-amino-6-(hydroxymethyl)quinolin-3-yl]oxy}ethyl]-5-(1H-pyrazol-1-yl)pyridin-2-ol]",0.178 µM,6.39 µM
"C[C@H](O)c1ccc2nc(N)c(O[C@@H](C)c3nc(O)ccc3-n3cccn3)cc2c1 [Example 52, 6-[(1S)-1-({2-amino-6-[(1S)-1-hydroxyethyl]quinolin-3-yl}oxy)ethyl]-5-(1H-pyrazol-1-yl)pyridin-2-ol]",10 µM,100 µM
"C[C@H](Oc1cc2cc(F)ccc2nc1N)c1nc(C(=O)O)c(F)cc1-n1cccn1 [Example 39, 6-{(1S)-1-[(2-amino-6-fluoroquinolin-3-yl)oxy]ethyl}-3-fluoro-5-(1H-pyrazol-1-yl)pyridine-2-carboxylic Acid]",0.464 µM,6.22 µM
"C[C@H](Oc1cc2cc(F)cc(F)c2nc1N)c1cc2c(cnn2CCO)cc1-n1cccn1 [Example 72, 2-[6-{(1S)-1-[(2-amino-6,8-difluoroquinolin-3-yl)oxy]ethyl}-5-(1H-pyrazol-1-yl)-1H-indazol-1-yl]ethanol]",0.011 µM,3.03 µM
"COc1ccc(-n2cccn2)c([C@H](C)Oc2cc3cc(F)cc(F)c3nc2N)n1 [Example 56, 6,8-difluoro-3-{(1S)-1-[6-methoxy-3-(1H-pyrazol-1-yl)pyridin-2-yl]ethoxy}quinolin-2-amine]",0.053 µM,5.68 µM
"C[C@H](Oc1cc2c(F)ccc(F)c2nc1N)c1cc(C(=O)O)ccc1-n1cccn1 [Example 19, 3-{(1S)-1-[(2-amino-5,8-difluoroquinolin-3-yl)oxy]ethyl}-4-(1H-pyrazol-1-yl)benzoic Acid]",0.064 µM,4.5 µM
"C[C@H](Oc1cc2cc(F)ccc2nc1N)c1nc2[nH]ncc2cc1-n1cccn1 [Example 68, 6-fluoro-3-{(1S)-1-[5-(1H-pyrazol-1-yl)-1H-pyrazolo[3,4-b]pyridin-6-yl]ethoxy}quinolin-2-amine]",0.015 µM,4.61 µM
